pIC50: −log10 of the molar value.
Tests used:
Full length Human HDAC6 = biological target: T1, Full length Human HDAC6 (Homo sapiens, UniProt Q9UBN7); test: Caliper endpoint assay for HDAC enzymatic activity (HDAC6); type: biochemical; conditions: for pIC50: in vitro enzymatic, Caliper endpoint assay, 30 min pre-incubation, 1 μM substrate peptide; for Selectivity (6 v 8): ratio of HDAC8 IC50/HDAC6 IC50
T1 construct: Full length Human HDAC6; FLAG (C); host or cells: baculovirus expression system
T1 sequence (Q9UBN7 1-1215): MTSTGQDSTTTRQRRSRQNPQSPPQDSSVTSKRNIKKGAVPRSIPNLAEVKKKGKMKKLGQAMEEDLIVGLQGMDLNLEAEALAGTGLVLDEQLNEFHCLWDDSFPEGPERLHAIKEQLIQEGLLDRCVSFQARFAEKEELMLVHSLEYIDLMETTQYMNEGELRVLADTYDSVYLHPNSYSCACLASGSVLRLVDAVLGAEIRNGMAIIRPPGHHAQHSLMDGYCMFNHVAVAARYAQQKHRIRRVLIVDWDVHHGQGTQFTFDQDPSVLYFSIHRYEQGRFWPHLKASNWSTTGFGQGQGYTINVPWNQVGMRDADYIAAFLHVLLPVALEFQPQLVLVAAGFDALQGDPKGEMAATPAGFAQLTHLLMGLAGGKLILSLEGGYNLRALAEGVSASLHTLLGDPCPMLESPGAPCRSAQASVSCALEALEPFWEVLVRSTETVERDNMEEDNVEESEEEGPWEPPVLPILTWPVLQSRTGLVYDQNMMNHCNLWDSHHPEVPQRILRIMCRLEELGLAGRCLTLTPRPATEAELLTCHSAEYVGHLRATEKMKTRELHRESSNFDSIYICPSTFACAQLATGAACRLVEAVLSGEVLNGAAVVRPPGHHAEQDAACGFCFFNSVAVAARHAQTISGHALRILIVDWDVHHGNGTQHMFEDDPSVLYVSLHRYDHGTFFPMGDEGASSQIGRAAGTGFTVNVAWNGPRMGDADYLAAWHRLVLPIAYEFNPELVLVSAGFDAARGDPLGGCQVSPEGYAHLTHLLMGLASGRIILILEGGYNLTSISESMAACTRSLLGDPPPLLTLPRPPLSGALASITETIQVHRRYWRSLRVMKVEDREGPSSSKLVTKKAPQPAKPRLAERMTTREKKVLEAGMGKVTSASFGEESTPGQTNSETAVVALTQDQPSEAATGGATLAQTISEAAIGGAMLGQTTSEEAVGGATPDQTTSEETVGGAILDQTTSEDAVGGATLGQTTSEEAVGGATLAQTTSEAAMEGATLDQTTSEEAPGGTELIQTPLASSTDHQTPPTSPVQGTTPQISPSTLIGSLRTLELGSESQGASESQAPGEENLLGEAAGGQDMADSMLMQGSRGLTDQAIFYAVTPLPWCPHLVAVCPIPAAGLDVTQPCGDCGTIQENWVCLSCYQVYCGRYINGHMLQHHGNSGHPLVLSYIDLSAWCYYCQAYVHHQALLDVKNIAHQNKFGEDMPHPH

Full length Human HDAC8 = biological target: T2, Full length Human HDAC8 (Homo sapiens, UniProt Q9BY41); test: Caliper endpoint assay for HDAC enzymatic activity (HDAC8); type: biochemical; conditions: in vitro enzymatic, 30 min pre-incubation, 1 μM substrate peptide
T2 construct: Full length Human HDAC8; HIS (N); host or cells: baculovirus expression system
T2 sequence (Q9BY41 1-377): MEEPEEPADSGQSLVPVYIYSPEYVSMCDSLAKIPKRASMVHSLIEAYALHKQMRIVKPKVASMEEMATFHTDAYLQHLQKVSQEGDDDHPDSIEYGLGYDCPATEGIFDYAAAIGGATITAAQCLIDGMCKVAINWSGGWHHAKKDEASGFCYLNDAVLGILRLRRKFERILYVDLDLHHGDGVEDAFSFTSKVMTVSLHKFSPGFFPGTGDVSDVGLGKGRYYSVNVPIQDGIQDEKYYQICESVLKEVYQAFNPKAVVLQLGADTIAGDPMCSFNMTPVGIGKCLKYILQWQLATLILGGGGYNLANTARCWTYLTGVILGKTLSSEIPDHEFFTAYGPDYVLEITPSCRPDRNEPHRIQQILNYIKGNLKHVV

| Compound | pIC50 (Full length Human HDAC6) | Selectivity (6 v 8) (Full length Human HDAC6) | pIC50 (Full length Human HDAC8) |
| --- | --- | --- | --- |
| O=C(NO)c1cc(F)c2c(c1)CCN([C@H]1C[C@]3(CCCNC3)C1)C2 (single isomer, unassigned) [Compound 341, 8-fluoro-N-hydroxy-2-((2r,4s)-6-azaspiro[3.5]nonan-2-yl)-1,2,3,4-tetrahydroisoquinoline-6-carboxamide] | 7.00 to 9.00 | IV (IV: >100-1000) | 4.00 to 5.00 |
| CC[C@H](c1ccccc1)N1CCc2cc(C(=O)NO)cc(F)c2C1 [Compound 30] | 7.00 to 9.00 | – | 5.00 to 6.00 |
| C[C@H]1C[C@@H]2c3c(F)cc(C(=O)NO)cc3CCN2C1 (single isomer, unassigned) [Compound 153] | 6.00 to 7.00 | – | 5.00 to 6.00 |
| O=C(NO)c1cc(F)c2c(c1)C[C@H]1CC3(CCCCC3)CN1C2 (single isomer, unassigned) [Compound 135] | 6.00 to 7.00 | – | 5.00 to 6.00 |
| CN1CCC[C@@]2(CC[C@H]2N2CCc3cc(C(=O)NO)cc(F)c3C2)C1 (single isomer, unassigned) [Compound 362] | 6.00 to 7.00 | III (III: >10-100) | 4.00 to 5.00 |
| O=C(NO)c1ccc2c(c1)CCN1CCCC[C@H]21 [Compound 90] | 5.00 to 6.00 | II (II: >1-10) | 5.00 to 6.00 |
| O=C(NO)c1cc(F)c2c(c1)CCN(C1CCC13CCCC3)C2 (stereo not shown) [Compound 314, 8-fluoro-2-spiro[3.4]octan-3-yl-3,4-dihydro-1H-isoquinoline-6-carbohydroxamic acid] | 7.00 to 9.00 | IV (IV: >100-1000) | 5.00 to 6.00 |
| O=C(NO)c1cc(F)c2c(c1)CCN(C1CCC3(CNC3)C1)C2 (stereo not shown) [Compound 388, 8-fluoro-N-hydroxy-2-(2-azaspiro[3.4]octan-6-yl)-1,2,3,4-tetrahydroisoquinoline-6-carboxamide] | 7.00 to 9.00 | IV (IV: >100-1000) | 4.00 to 5.00 |
| O=C(NO)c1cc(F)c2c(c1)CCN([C@@H]1CCNC3(CCC3)C1)C2 (single isomer, unassigned) [Compound 436] | 7.00 to 9.00 | IV (IV: >100-1000) | 5.00 to 6.00 |
| O=C(NO)c1cc(F)c2c(c1)CCN([C@@H]1CCCC3(CCC3)C1)C2 (single isomer, unassigned) [Compound 194] | 7.00 to 9.00 | V (V: >1000) | 4.00 to 5.00 |
| CC[C@H]1N(Cc2ccc(C(=O)NO)cc2F)CC12CCCC2 [Compound 169] | 7.00 to 9.00 | – | 5.00 to 6.00 |
| CC[C@H]1Cc2c(F)cc(C(=O)NO)cc2CN1C[C@H]1CCCCO1 (single isomer, unassigned) [Compound 231] | 7.00 to 9.00 | IV (IV: >100-1000) | 5.00 to 6.00 |
| CC[C@@H]1Cc2c(F)cc(C(=O)NO)cc2CN1C[C@H]1C[C@H]2CC[C@@H](C1)N2C (single isomer, unassigned) [Compound 572] | 7.00 to 9.00 | III (III: >10-100) | 5.00 to 6.00 |
| C[C@@H]1C[C@H]2c3c(F)cc(C(=O)NO)cc3CCN2C1 (single isomer, unassigned) [Compound 152] | 7.00 to 9.00 | – | 5.00 to 6.00 |

The next lines start with the values.

| pIC50 (Full length Human HDAC6) | Selectivity (6 v 8) (Full length Human HDAC6) | pIC50 (Full length Human HDAC8) | Compound |
| --- | --- | --- | --- |
| 7.00 to 9.00 | IV (IV: >100-1000) | 5.00 to 6.00 | O=C(NO)c1cc(F)c2c(c1)CCN([C@@H]1CCN(C3CC3)C3(CCC3)C1)C2 (single isomer, unassigned) [Compound 440] |
| 6.00 to 7.00 | III (III: >10-100) | 4.00 to 5.00 | CC[C@@H]1Cc2c(F)cc(C(=O)NO)cc2CN1CC1C2CC1CN(C)C2 (single isomer, unassigned) [Compound 530] |
| 7.00 to 9.00 | IV (IV: >100-1000) | 5.00 to 6.00 | O=C(NO)c1cc(F)c2c(c1)CCN(C[C@@]13CN[C@@H](CO1)C3)C2 [Compound 472, 8-fluoro-2-[[(1R,4R)-2-oxa-5-azabicyclo[2.2.1]heptan-1-yl]methyl]-3,4-dihydro-1H-isoquinoline-6-carbohydroxamic acid] |
| 7.00 to 9.00 | V (V: >1000) | < 4.00 | CC[C@H]1Cc2c(F)cc(C(=O)NO)cc2CN1CC1C2CC1CN(C)C2 (single isomer, unassigned) [Compound 531] |
| 6.00 to 7.00 | IV (IV: >100-1000) | 4.00 to 5.00 | CC[C@H]1Cc2c(F)cc(C(=O)NO)cc2CN1C1CC2(CCN(C)CC2)C1 (single isomer, unassigned) [Compound 595] |
| 7.00 to 9.00 | IV (IV: >100-1000) | 5.00 to 6.00 | CN1CC2(C[C@@H](N3CCc4cc(C(=O)NO)cc(F)c4C3)CCO2)C1 (single isomer, unassigned) [Compound 451] |
| 7.00 to 9.00 | IV (IV: >100-1000) | 4.00 to 5.00 | CN1CC[C@H](N2CCc3cc(C(=O)NO)cc(F)c3C2)CC12CCC2 (single isomer, unassigned) [Compound 437] |
| 7.00 to 9.00 | V (V: >1000) | 4.00 to 5.00 | O=C(NO)c1cc(F)c2c(c1)CCN(CC1CCC3(CC1)CN(C1CC1)C3)C2 [Compound 466, 2-[(2-cyclopropyl-2-azaspiro[3.5]nonan-7-yl)methyl]-8-fluoro-3,4-dihydro-1H-isoquinoline-6-carbohydroxamic acid] |
| < 4.00 | V (V: >1000) | < 4.00 | CC[C@@H]1Cc2c(F)cc(C(=O)NO)cc2CN1C[C@@]12C[C@@H](CO1)N(C)C2 (single isomer, unassigned) [Compound 555] |
| 6.00 to 7.00 | III (III: >10-100) | 4.00 to 5.00 | CC[C@@H]1Cc2c(F)cc(C(=O)NO)cc2CN1C1CC2(CCN(C(C)=O)CC2)C1 (single isomer, unassigned) [Compound 602] |
| 7.00 to 9.00 | IV (IV: >100-1000) | 5.00 to 6.00 | CNC12CC(CN3CCc4cc(C(=O)NO)cc(F)c4C3)(C1)C2 [Compound 487, 8-fluoro-2-[[3-(methylamino)-1-bicyclo[1.1.1]pentanyl]methyl]-3,4-dihydro-1H-isoquinoline-6-carbohydroxamic acid] |
| 6.00 to 7.00 | III (III: >10-100) | 5.00 to 6.00 | CC[C@H]1Cc2c(F)cc(C(=O)NO)cc2CN1C1CC2(C1)CN(C)C2 (single isomer, unassigned) [Compound 585] |
